Experimental data: patent publication US20170131285A1, “METHODS AND COMPOSITIONS FOR DIAGNOSING, MONITORING AND TREATING CANCER” (INSERM (Institut National de la Sante et de la Recherche …, priority 2014, published 2017)
Where no end group is shown, it is not given here.

Columns and labels:
[1] = Toxicity observed in treated animals; assay type: in vivo; conditions: applicant's studies and bio-distribution studies
[2] = test system: membrane HSP70 on tumor-derived exosomes (B16F10, HCT116); test: BLI binding of tumor-derived exosomes to immobilized biotinylated A8, with or without cmHSP70
Procedure: FIG. 1: Tumor-derived exosomes in cancer patient′ samples express HSP70. (A) The binding of exosomes (10^6), derived from the B16F10, HCT116 cell lines, with or without previous incubation with cmHSP70, to immobilized biotinylated A8 was determined by biolayer interferometry. (B) Association curves of HSP70-exosomes in patients' urines (1 breast, 1 pulmonary) or healthy individuals (controls) with biotinylated A8 immobilized on streptavidin sensor tips. Curves represent mean values of triplicate measurements for each concentration. (C) Exosomes expressing HSP70 were determined by FACS in urine samples from healthy individuals (n=5) and cancer metastatic cancer patients (5 breast, 4 pulmonary). The bar graph presents the means and standard deviations of the vesicle concentrations. (D) Nanoparticle Tracking Analysis (NTA) to quantify total number of exosomes in urine human samples (urines) described above. Samples were diluted in PBS and analyzed using a NanoSight LM10 instrument. Inset values represent the total number of exosomes counted 10̂^9/ml.
Protein-protein interaction experiments were conducted at 25° C. in PBS with an Octet Red instrument (Forte Bio, Menlo Park, Calif., USA) by biolayer interferometry (BLI). […] Each KD was determined with a 1:1 stoichiometry model using a global fit with Rmax unlinked by sensor (Forte Bio, Data analysis software version 7.1.0.89). […]

EL4 tumors = test: EL4 lymphoma tumor model in C57BL6 mice; assay type: in vivo, mouse
Procedure: FIG. 10: A8 anti-tumor effect in mice is associated with an increased anti-tumor immune response. Mice were s.c. injected with EL4 cells (7·10^5). On day 5, animals were treated every two days until the end of the experiment with either A0 (control aptamer) or A8 (3 mg/kg, i.p. injection). On day 6, half the animals were i.p. treated with a single dose of 5-fluorouracil (5FU, 25 mg/kg). A) At day 10, the percentage of MDSC (Gr1^+ CD11b^+) cells in the spleen collected from the different groups of mice was analyzed by flow cytometry (6 animals per group). As a negative control (Ctl) we used animals with no tumors. B) Tumor size was measured every two days (6 animals per group; n=3). The open symbols represent animals treated with 5FU. T test: *, p<0.05, **, p<0.01, (n=3). C) EL4 tumor sections were performed 10 days after injection of A8. Dendritic cells and macrophages were labeled using, CD11c and F4/80 antibodies. A representative image is shown (n=6 per group). Labeled cells were counted from 300 cells chosen randomly in different microscopic fields.
Animals were killed 15 or 18 days after cell injection. The site of tumor cell injection was resected and snap-frozen in liquid nitrogen. An immunohistochemical study of tumor-infiltrating inflammatory cells was performed on acetone-fixed 5 μm cryostat sections. Tumoral biopsies were blocked in PBS with 3% of BSA (10 min, RT) anti-CD11c (1/50, monoclonal, BD Pharmingen), anti-CD3 (1/50, monoclonal, BD Pharmingen), anti-F4/80 (1/100, monoclonal, BD Pharmingen), diluted in PBS with 1% of BSA, was added on slides and incubated 45 minutes at RT, after washing with PBS. Nuclei were colored with mounting medium: Prolong Gold with Dapi (Molecular Probe). […] Images were acquired using an AxioCam MRm monochrome CCD camera (Carl Zeiss GmbH). Six pictures were taken in random fields for each labeling, and analyzed using image J software.
To confirm A8 in vivo results shown in FIG. 5, the inventors have used another syngeneic model: lymphoma EL4 tumors developed in C57BL6 mice. […]

capture of exosomes through interaction with membrane-HSP70 ([2]; immobilized biotinylated A8, exosomes (10^6)): efficiently captured exosomes
Sequence: SPWPRPTY [Aptamer A8, SPWPRPTY]
toxicity in the animals, notably cardiac or hepatic [1]: neither our studies nor those done for the bio-distribution of A8 indicate any evident toxicity | ability of cmHSP70 to bind to HSP70 (competition) [2]: in a dose dependent manner, decreased the ability of cmHSP70 to bind to HSP70 | tumor infiltration by immune cells (EL4 tumors): strongly infiltrated by different immune cells | number of MDSC in the spleen (EL4 tumors; A8 3 mg/kg i.p. every two days, day 10): a decrease in the number of MDSC in the spleen | size of the tumors (EL4 tumors; A8 3 mg/kg i.p., with or without single dose 5FU 25 mg/kg i.p.): a decrease in the size of the tumors mainly when added in combination to 5FU
